In patent US20240238417A1, “METHODS OF PRODUCING TUMOR VACCINES AND USES THEREOF” (priority 2021, published 2024):

What was measured:
4T1 cells = test: Third inoculation with 4T1 breast cancer cells in a gNO-treated CT26 immunized mouse; format: in vivo; conditions: mouse treated with 25,000 ppm NO twice 15 minutes; third inoculation 30 days post the second
Protocol: Balb/c mouse was inoculated with 500,000 CT26 cells to the right flank. CT26 tumor was treated with 25,000 ppm NO for 15 minutes at a flow rate of 0.25 LPM. Seven days post gas treatment, this mouse was treated once again using the same protocol. Twelve days post the first NO treatment, this mouse was re-inoculated with 500,000 CT26 cells to the left flank. A third inoculation of cancer cells was performed 30 days post the second cell inoculation, using mouse breast cancer cells, was performed as well and the growth of a third inoculation of breast cancer cells, 4T1 cells. Forty-four days post challenge assay start (second inoculation), this mouse was sacrificed, and his spleen was harvested and preserved in RPMI-based media at 4° c. until processing of it. The spleen was processed into a sterile 35 mm culture dish containing 5 ml of RPMI-based media. Any extra connective tissues or fat was trimmed from the spleen. The flat end of a plunger was used to mince the spleen by crushing the spleen to release the splenocytes. A 70 μm strainer was primed by passing 1 ml of PBS through it and placed on a sterile 50 mL conical tube. The pellet was collected and transferred through the strainer via a 5 mL serological pipette. The strainer was washed with 3 mL of RPMI-based media. Tube will be centrifuged at 300×g for 10 minutes. […]

CT26 tumor = test: Local gNO treatment of CT26 tumor bearing mice, primary tumor; format: in vivo
Protocol: Mice: All in vivo experimental procedures were carried out in accordance with the protocol approved by the Ethics Committee on the Use and Care of Animals. Institutional Animal Care and Use Committee (IACUC): 67-09-2019 and IL-20-3-149. The in vivo assays were performed on Balb/c or C57BU6J mice: 7-10 weeks of age, obtained from Envigo (Ness-Ziona, Israel), unless otherwise indicated.
Inoculation of tumor cells: Cancer cell suspensions at a concentration of 2.5-10.0×10^6 cells/ml were inoculated to the right flank of mice at a dose volume of 0.1 ml. Administration was performed as soon as possible following cell suspension preparation and after manual shaking prior to inoculation. The cell suspension was then aspirated into a 1-ml syringe with a 27G needle for subcutaneous (s.c.) injection.
Test article treatment: Mice were first anesthetized by an intraperitoneal (i.p) injection of 100 mg/kg ketamine and 20 mg/kg xylazine hydrochloride solution. After 10 minutes, tumor-bearing mice were treated with the indicated dose of gNO.
In all protocols, the gas was delivered from NO in N2 cylinders. The outlet pressure was set to 2-3.5 bar using a pressure regulator that was connected directly to the cylinder.
In protocols that involve administration by needle injection, a silicone hose was connected directly to the pressure regulator on one end and to a manual or digital MFC on the other end. The flow was adjusted to 0.05 LPM-0.25 LPM. An additional silicone hose was connected to the flow controller as well as to a 23G hypodermic needle. The needle was inserted horizontally into the center of each tumor.
Tumor volume calculation: Local tumor growth was determined by measuring 3 mutually orthogonal tumor dimensions 2-3 times per week, according to the following formula:
or Tumor volume=Diameter 1× Diameter 2^2/2, unless otherwise indicated. Diameter 1 represents length, Diameter 2 represents width and Diameter 3 represents height.
BALB/c female and male mice were obtained from Almog Diagnostic that purchased them from Envigo, Israel. The mice were 7-8 weeks of age. Animal care and experimentation were performed in accordance with the Bar-Ilan University guidelines.
CT-26, a colon carcinoma cell line was induced in a BALB/c mouse by chemical carcinogenesis.
Cells were cultured in Roswell Park Memorial Institute (RPMI) 1640 supplemented with 100 U/ml penicillin, 100 μg/ml streptomycin, 2 mM L-glutamine; 1 mM sodium pyruvate; 1% non-essential amino acid solution; 10% fetal calf serum. Cultures were maintained at 37° C. in a humidified incubator with a 5% CO2 atmosphere.
Mice were inoculated subcutaneously with 5×10^5 CT-26 cells suspended in 100 μL Hank's Balanced Salt Solution (HBSS) into the low lateral side of the back. Local tumor growth was determined by measuring two mutually orthogonal tumor diameters with a caliper. The volume of the tumor was calculated using the formula: Vol=D1×D2×D2/2, where D1, D2 are two mutually orthogonal tumor diameters.
Air-1 is a female Balb/c mouse that was treated twice. On day 0 the tumor volume was 64.85 mm^3.
NO-1 is a female Balb/c mouse and was treated once. […] Then, the skin was removed from the tumor, and the tumor was re-exposed to gNO via a perforated flask filled with gNO using the same parameters.
NO-2 is a male Balb/c mouse and was treated 3 times. On day 0 the tumor volume was 38.51 mm^3. Day 0—gNO at 50,000 ppm was administered for 3.8 minutes at a flow rate of 0.9 using a cap. Day 5: gNO at 10,000 ppm was administered for 30 minutes using a cap. Then, gNO was delivered intra-tumorally by a 23G needle such as shown in FIG. 11B at 0.3 LPM for another 10 minutes, using an intra-tumoral channel. The tip of the needle was directed at the outside area. Day 11: gNO at 10,000 ppm was delivered to the tumor for 5 minutes and at a flow rate of 0.3 LPM, using a 23G needle and an intra-tumoral channel.
In an additional set of experiments, aluminum disposable gas cylinders were used. […]

[N]=O [gNO, nitric oxide]
growth of a third inoculation of breast cancer cells (4T1) (4T1 cells): inhibited
CT-26 tumor destruction (CT26 tumor; 10,000 ppm gNO, 0.9 LPM, 20 minutes in flask, 1-17 days post treatment): 100%
tumor on photographs after treatment (CT26 tumor; 10,000 ppm gNO, 0.9 LPM, 20 minutes in flask, 1 minute, 9 days and 14 days post treatment): the tumor was destructed
cured mice (CT26 tumor; 25,000 ppm gNO intra-tumoral 15 minutes, 0.25 LPM, repeated a week later, 44 days post the first treatment): 50%
mice with CT-26 tumor growth inhibition compared to air treatment (CT26 tumor; 50,000 ppm intra-tumoral 2-3 minutes 0.2 LPM, then 10,000 ppm 6 minutes intra-tumoral and 4 minutes to outer layer): ⅔
tumor on photographs after treatment (CT26 tumor; 200,000 ppm gNO for 2 seconds, 0.01 LPM, 9 days after treatment): the tumor disappeared
size of air-treated tumor relative to gNO-treated tumors (CT26 tumor; CT26 tumors, 10,000-50,000 ppm gNO (mice NO-1, NO-2), 12 days post treatment 1): more than 30 times
